According to patent US12419879B2, “Combination therapy for the treatment of pancreatic cancer” (Genentech, Inc., priority 2016, dated 2025):

Columns and labels:
KP4 cells = assay: Small molecule inhibitor screen of KP4 cells in 2D monolayer and 3D spheroid cultures; assay type: cell-based, human; conditions: 2D monolayer vs 3D spheroid
Experimental: Cell viability assays were performed by treating cells with a dose titration (0.001 to 10 μM) or fixed dose (1 μM) of the various pharmacologic inhibitors for 72 hrs and measuring viability using CellTiter Glo (Promega). Bliss scores were calculated as described previously. (Borisy A A, Elliott P J, Hurst N W, Lee M S, Lehar J, Price E R, Systematic discovery of multicomponent therapeutics, Proceedings of the National Academy of Sciences of the United States of America, 2003; 100(13):7977-82, Epub 2003/06/12).
To compare how pancreatic cancer cells cultured in 2-dimensional (2D) and 3-dimensional (3D) cultures respond to various cancer therapeutic agents, we treated the KAS mutant PDAC cancer cell line KP4 with a panel of 203 small molecule inhibitors of cancer-relevant targets and known chemotherapeutics (Table 1).
For 3D cultures, described herein is a method to facilitate a relatively rapid “high-throughput” analysis. […] Their drug sensitivity pattern was also similar to previously described spheroids (FIGS. 28 & 29).

KP4 xenografts = assay type: in vivo
Experimental: (§1) All animal studies were carried out in compliance with National Institutes of Health Guide for the Care and Use of Laboratory Animals. […] Two xenograft models were used: the human PDAC-derived cell line KP4 and cells derived from tumors isolated from KPP GEMM mice. 5×10^6 cells were subcutaneously implanted into the right flanks of immune-deficient mice (Charles River Laboratories) without using any Matrigel. […] Tumor volumes were measured using Ultra-Cal IV calipers at the indicated intervals. To appropriately analyze the repeated measurement of tumor volumes from the same animals over time, a mixed modeling approach was used. (Jose Pinheiro D B, Saikat DebRoy, Deepayan Sarkar, R Core team. Linear and Nonlinear mixed effects models. Package ‘nlme’2008). This approach addresses both repeated measurements and modest dropouts due to any non-treatment-related deaths of animals before the study end. Cubic regression splines were used to fit a non-linear profile to time courses of log2 tumor volume at each dose level. These non-linear profiles were then related to the dose within the mixed model.
(§2) To determine the uncertainty intervals (UIs) for % TGI, the fitted curve and the fitted covariance matrix were used to generate a random sample as an approximation to the distribution of % TGI. […] The reported UIs were the values for which 95% of the time the recalculated values of % TGI would fall in this region given the fitted model. The 2.5 and 97.5 percentiles of the simulated distribution were used as the upper and lower UIs. Tumor growth inhibition >60% was considered meaningful. (Wong H, Choo E F, Alicke B, Ding X, La H, McNamara E, Antitumor activity of targeted and cytotoxic agents in murine subcutaneous tumor models correlates with clinical response, Clinical Cancer Research: an official journal of the American Association for Cancer Research, 2012; 18(14):3846-55. Epub 2012/06/01).
(§3) Plotting was performed and generated using R, version 2.8.1 (R Development Core Team 2008; R Foundation for Statistical Computing; Vienna, Austria) and Excel, version 12.0.1 (Microsoft Corporation). Data were analyzed using R, version 2.8.1, and the mixed models were fit within R using the nlme package, version 3.1-89 (41).

KPP xenografts = assay type: in vivo; conditions: cobimetinib 5 mg/kg and/or ponatinib 30 mg/kg, PO, QD; for Tumor volume (last day): in mm³ (unit assumed)
Experimental: as §1, §2, §3

PDAC cell lines = assay: Cell viability assay (CellTiter Glo) with Bliss analysis in PDAC cell lines, 2D and 3D; assay type: cell-based, human
Experimental: Cell viability assays were performed by treating cells with a dose titration (0.001 to 10 μM) or fixed dose (1 μM) of the various pharmacologic inhibitors for 72 hrs and measuring viability using CellTiter Glo (Promega). Bliss scores were calculated as described previously.

[1] = system: PDGFRα, S6 and STAT3 activation; assay: Western blot of signaling proteins in PDAC cells (2D and 3D); assay type: cell-based, human; conditions: KP4 cells
Experimental: Cells were seeded in 10 cm dishes and treated with 1 μM of small molecule inhibitors for 24 hrs. Cell lysates were prepared in RIPA lysis buffer (Thermo Scientific) containing a protease inhibitor cocktail (Thermo Scientific), SDS-PAGE was performed and proteins were transferred to nitrocellulose membranes. Immunoblotting was performed using standard methods. Protein bands were quantified using ImageJ software. Primary antibodies: p-Erk, p-STAT3, p-S6, total-S6, p-PDGFRα, p-PDGFRβ, p-RSK3, cleaved PARP, Bcl-xL, Mcl, survivin, Rab11, p-Akt, β-Actin, GAPDH (Cell Signaling), total-STAT3, total-PDGFRα (Santa Cruz Biotechnology), p-EphA7 (Gene Tex) and p-EphA2/3, EphA2/5 (MyBioscource).

IL-6 secretion = IL-6 secretion in 2D culture supernatants of PDAC cell lines; assay type: cell-based, human; conditions: multiple PDAC cell lines, 24 hrs
[2] = system: serum growth factors and cytokines; assay: Luminex assay / ELISA of plasma samples of KP4 xenograft mice; assay type: in vivo
xenograft tumors = assay: Histopathology, IHC/IF staining and immunoblotting of grafted tumors; assay type: in vivo, mice
Experimental: Cells were seeded in 10 cm dishes and treated with 1 μM of small molecule inhibitors for 24 hrs. Cell lysates were prepared in RIPA lysis buffer (Thermo Scientific) containing a protease inhibitor cocktail (Thermo Scientific), SDS-PAGE was performed and proteins were transferred to nitrocellulose membranes. Immunoblotting was performed using standard methods. Protein bands were quantified using ImageJ software. Primary antibodies: p-Erk, p-STAT3, p-S6, total-S6, p-PDGFRα, p-PDGFRβ, p-RSK3, cleaved PARP, Bcl-xL, Mcl, survivin, Rab11, p-Akt, β-Actin, GAPDH (Cell Signaling), total-STAT3, total-PDGFRα (Santa Cruz Biotechnology), p-EphA7 (Gene Tex) and p-EphA2/3, EphA2/5 (MyBioscource). Immunohistochemistry and immunofluorescence were performed on 4 μm thick sections cut from formalin-fixed paraffin-embedded cell pellets, whole tissue sections, and TMA blocks (US Biomax, Inc.). Slides were deparaffinized and antigen unmasking was performed on PT Module (Thermo Scientific) with Target Retrieval Solution (Dako). […] Antibody binding was detected using Vecstatin ABC Elite horseradish peroxidase (Vector Laboratories) or PowerVision Poly-HRP (Leica Biosystems) and metal-enhanced 3, 3′-diaminobenzidine (Pierce) for IHC stainings and PowerVision Poly-HRP (Leica Biosystems) along with TSA kits (Life Technologies) for immunofluorescence staining. […]

[3] = cobimetinib 5 mg/kg and/or ponatinib 30 mg/kg, PO, QD

Cn1cnc2c(F)c(Nc3ccc(Br)cc3Cl)c(C(=O)NOCCO)cc21 [AZD6244]
differential sensitivity of 3D versus 2D cultures (KP4 cells): more effective on 3D cultures than the 2D cultures

O=C(c1ccc(F)c(F)c1Nc1ccc(I)cc1F)N1CC(O)([C@@H]2CCCCN2)C1 [Cobimetinib]
effect on tumor growth (in words) (KP4 xenografts): ineffective as single agents
% TGI (AUC vs. Vehicle) (KP4 xenografts; [3]): 70%
TTP 2X (Time to Tumor Progression, 2X original volume) (KP4 xenografts; [3]): 13
Tumor volume (last day) (KP4 xenografts; [3]): 532 mm³
% TGI (AUC vs. Vehicle) (KPP xenografts): 31%
TTP 2X (Time to Tumor Progression, 2X original volume) (KPP xenografts): 6.5
Tumor volume (last day) (KPP xenografts): 917
differential sensitivity of 3D versus 2D cultures (KP4 cells): more effective on 3D cultures than the 2D cultures
effect on cell viability as single agents (PDAC cell lines): no effect on cell viability
activation of p-PDGFRα, p-STAT3 and p-S6 (western blot) [1]: increased level of activation
secretion of IL-6 (IL-6 secretion): increased secretion of the IL-6 ligand
serum growth factor and cytokine levels [2]: Significantly elevated serum levels of PDGFα, PDGFβ, and increased levels of IL-6
p-PDGFRα, p-STAT3 and pS6 in grafted tumors (xenograft tumors): induction

O=C(NOCCO)c1ccc2cncn2c1Nc1ccc(I)cc1F [GDC-0623]
differential sensitivity of 3D versus 2D cultures (KP4 cells): more effective on 3D cultures than the 2D cultures

CS(=O)(=O)N1CCN(Cc2cc3nc(-c4cccc5[nH]ncc45)nc(N4CCOCC4)c3s2)CC1 [GDC-0941]
differential sensitivity of 3D versus 2D cultures (KP4 cells): more effective on 3D cultures than the 2D cultures

Cc1c(CN2CCN(C(=O)[C@H](C)O)CC2)sc2c(N3CCOCC3)nc(-c3cnc(N)nc3)nc12 [GDC-0980]
differential sensitivity of 3D versus 2D cultures (KP4 cells): more effective on 3D cultures than the 2D cultures

O=C(NOC[C@H](O)CO)c1ccc(F)c(F)c1Nc1ccc(I)cc1F [PD901]
differential sensitivity of 3D versus 2D cultures (KP4 cells): more effective on 3D cultures than the 2D cultures

Cc1ccc(C(=O)Nc2ccc(CN3CCN(C)CC3)c(C(F)(F)F)c2)cc1C#Cc1cnc2cccnn12 [Ponatinib]
effect on tumor growth (in words) (KP4 xenografts): ineffective as single agents
TTP 2X (Time to Tumor Progression, 2X original volume) (KP4 xenografts; [3]): 8.5
Tumor volume (last day) (KP4 xenografts; [3]): 408 mm³
TTP 2X (Time to Tumor Progression, 2X original volume) (KPP xenografts): 7
Tumor volume (last day) (KPP xenografts): 1045
effect on cell viability as single agents (PDAC cell lines): no effect on cell viability
